From patent US20090068290A1, “BIFEPRUNOX DOSES FOR TREATING SCHIZOPHRENIA” (priority 2006, published 2009)

Tests used:
Format in all cases: in vivo, human
[1] = system: adult subjects with schizophrenia; assay: PANSS negative subscale score, Clinical Study One; conditions: ITT; for PANSS Negative Subscale Score, Trt Effect (bifeprunox—placebo): ANCOVA
Experimental: There were five treatment groups in this study. […] Study medication was administered once daily. After Baseline measurements were performed, the titration phase was begun. Bifeprunox treated subjects were titrated up to 5 mg, 10 mg or 20 mg according to a standardized titration schedule (Day 1: 0.125 mg, Day 2: 0.25 mg, Day 3: 0.5 mg, Day 4: 1.0 mg, Day 5: 2.0 mg, Day 6: 5.0 mg, Day 7: 10.0 mg, Day 8: 20 mg). When the assigned dose was reached, subjects were maintained at that dose for the remainder of the six-week treatment period.
The change in the Positive and Negative Symptom Scale (PANSS) total score, from baseline to endpoint, was the primary outcome measure. Secondary efficacy measures included: PANSS positive, PANSS negative, PANSS general psychopathology (GPP) score, PANSS-derived Brief Psychiatric Rating Scale (BPRS) score, Clinical Global Impressions-Severity of Illness (CGI-S), CGI-Improvement (CGI-I) scores, and responder rates. Safety and tolerability evaluations included extrapyramidal symptoms (EPS), weight gain, lipid profile, and serum prolactin.

[2] = system: adult subjects with schizophrenia; assay: BPRS total score, Clinical Study Two; conditions: for Change from Baseline in BPRS Total Score, Mean (SD) / Change from Baseline in BPRS Total Score, Median / Change from Baseline in BPRS Total Score, Trt Effect (bifeprunox—placebo) / mean change (SD) from Baseline to Endpoint in BPRS total score: LOCF; for Change from Baseline in BPRS Total Score, Mean (SD) / Change from Baseline in BPRS Total Score, Median / Change from Baseline in BPRS Total Score, Trt Effect (bifeprunox—placebo): ITT population; for BPRS total score, treatment effect (bifeprunox—placebo): Endpoint LOCF; for mean change (SD) from Baseline to Endpoint in BPRS total score: ITT
Experimental: Rating scale assessments were performed weekly, except for week 5, to measure the change from baseline to endpoint of the PANSS total score. Other assessments included: PANSS positive symptom subscale score, PANSS negative symptom subscale score, PANSS general pschopathology subscale score, BPRS total score, BPRS psychosis score, the CGI-S score, the CGI-I score, responder rates based on the PANSS total score, and the Calgary Depression Scale for Schizophrenia (CDSS). […]
Subjects who completed this study had the option to continue in the long-term. […] Blood samples were also obtained at Screening/Baseline, Week 3, and Week 6 for clinical laboratory assessments.

[3] = system: adult subjects with schizophrenia; assay: CGI responder rate, Clinical Study Three; conditions: LOCF; for CGI Responder No, % / CGI Responder Yes, %: Week 6/Endpoint
Description: CLINICAL STUDY THREE: A CGI responder is defined as a subject who is categorized as “very much improved” or “much improved” on the CGI Improvement scale. […] No notable differences were observed between the placebo group and either of the two bifeprunox dose groups.

[4] = Bifeprunox 10 mg, Endpoint LOCF
[5] = Bifeprunox 20 mg, Endpoint LOCF
[6] = Bifeprunox 30 mg, Week 6/Endpoint
[7] = Bifeprunox 40 mg, Week 6/Endpoint

## O=c1[nH]c2cccc(N3CCN(Cc4cccc(-c5ccccc5)c4)CC3)c2o1 [Bifeprunox, 7-[4-([1,1′-biphenyl]-3-ylmethyl)-1-piperazinyl]-2(3H)-benzoxazolone]
[1]; Bifeprunox 5 mg, Endpoint LOCF
  Change from Baseline in PANSS Negative Subscale Score, Mean (S.D.): −2.2 (4.9)
  Change from Baseline in PANSS Negative Subscale Score, Median: −2
  PANSS Negative Subscale Score, Trt Effect (bifeprunox—placebo): −1.0
[1]; Bifeprunox 5 mg, Week 1, LOCF
  Change from Baseline in PANSS Negative Subscale Score, Mean (S.D.): −1.1 (3.9)
  Change from Baseline in PANSS Negative Subscale Score, Median: −1
[1]; Bifeprunox 5 mg, Week 2, LOCF
  Change from Baseline in PANSS Negative Subscale Score, Mean (S.D.): −1.8 (4.4)
  Change from Baseline in PANSS Negative Subscale Score, Median: −2
[1]; Bifeprunox 5 mg, Week 3, LOCF
  Change from Baseline in PANSS Negative Subscale Score, Mean (S.D.): −1.8 (4.7)
  Change from Baseline in PANSS Negative Subscale Score, Median: −2
[1]; Bifeprunox 5 mg, Week 4, LOCF
  Change from Baseline in PANSS Negative Subscale Score, Mean (S.D.): −2.0 (4.9)
  Change from Baseline in PANSS Negative Subscale Score, Median: −1
[1]; [4]
  Change from Baseline in PANSS Negative Subscale Score, Mean (S.D.): −1.7 (4.7)
  Change from Baseline in PANSS Negative Subscale Score, Median: −1
[1]; Bifeprunox 10 mg, Week 1, LOCF
  Change from Baseline in PANSS Negative Subscale Score, Mean (S.D.): −1.4 (3.4)
  Change from Baseline in PANSS Negative Subscale Score, Median: −1
[1]; Bifeprunox 10 mg, Week 2, LOCF
  Change from Baseline in PANSS Negative Subscale Score, Mean (S.D.): −1.5 (4.2)
  Change from Baseline in PANSS Negative Subscale Score, Median: −1
[1]; Bifeprunox 10 mg, Week 3, LOCF
  Change from Baseline in PANSS Negative Subscale Score, Mean (S.D.): −1.7 (5.0)
  Change from Baseline in PANSS Negative Subscale Score, Median: −1
[1]; Bifeprunox 10 mg, Week 4, LOCF
  Change from Baseline in PANSS Negative Subscale Score, Mean (S.D.): −1.5 (4.6)
  Change from Baseline in PANSS Negative Subscale Score, Median: −1
[1]; [5]
  Change from Baseline in PANSS Negative Subscale Score, Mean (S.D.): −2.6 (5.3)
  Change from Baseline in PANSS Negative Subscale Score, Median: −2
  PANSS Negative Subscale Score, Trt Effect (bifeprunox—placebo): −1.4
[1]; Bifeprunox 20 mg, Week 1, LOCF
  Change from Baseline in PANSS Negative Subscale Score, Mean (S.D.): −1.6 (3.4)
  Change from Baseline in PANSS Negative Subscale Score, Median: −1
[1]; Bifeprunox 20 mg, Week 2, LOCF
  Change from Baseline in PANSS Negative Subscale Score, Mean (S.D.): −2.0 (4.2)
  Change from Baseline in PANSS Negative Subscale Score, Median: −1
[1]; Bifeprunox 20 mg, Week 3, LOCF
  Change from Baseline in PANSS Negative Subscale Score, Mean (S.D.): −2.7 (4.4)
[1]; Bifeprunox 20 mg, Week 4, LOCF
  Change from Baseline in PANSS Negative Subscale Score, Mean (S.D.): −2.5 (4.6)
  Change from Baseline in PANSS Negative Subscale Score, Median: −2
[2]; Bifeprunox 30 mg, Week 1
  Change from Baseline in BPRS Total Score, Mean (SD): −3.8 (7.0)
  Change from Baseline in BPRS Total Score, Median: −3
[2]; Bifeprunox 30 mg, Week 2
  Change from Baseline in BPRS Total Score, Mean (SD): −7.0 (9.5)
  Change from Baseline in BPRS Total Score, Median: −6
[2]; Bifeprunox 30 mg, Week 3
  Change from Baseline in BPRS Total Score, Mean (SD): −7.93 (10.7)
  Change from Baseline in BPRS Total Score, Median: −6
[2]; Bifeprunox 30 mg, Week 4
  Change from Baseline in BPRS Total Score, Mean (SD): −8.2 (11.5)
  Change from Baseline in BPRS Total Score, Median: −7
[2]; [6]
  Change from Baseline in BPRS Total Score, Mean (SD): −8.1 (12.3)
  Change from Baseline in BPRS Total Score, Median: −7
  Change from Baseline in BPRS Total Score, Trt Effect (bifeprunox—placebo): −3.2
[2]; Bifeprunox 40 mg, Week 1
  Change from Baseline in BPRS Total Score, Mean (SD): −4.3 (7.1)
  Change from Baseline in BPRS Total Score, Median: −4
[2]; Bifeprunox 40 mg, Week 2
  Change from Baseline in BPRS Total Score, Mean (SD): −5.5 (9.3)
  Change from Baseline in BPRS Total Score, Median: −6
[2]; Bifeprunox 40 mg, Week 3
  Change from Baseline in BPRS Total Score, Mean (SD): −6.3 (10.3)
  Change from Baseline in BPRS Total Score, Median: −6
[2]; Bifeprunox 40 mg, Week 4
  Change from Baseline in BPRS Total Score, Mean (SD): −5.7 (10.9)
  Change from Baseline in BPRS Total Score, Median: −4
[2]; [7]
  Change from Baseline in BPRS Total Score, Mean (SD): −6.5 (11.7)
  Change from Baseline in BPRS Total Score, Median: −5
  Change from Baseline in BPRS Total Score, Trt Effect (bifeprunox—placebo): −1.9
[2]; bifeprunox 30 mg
  BPRS total score, treatment effect (bifeprunox—placebo): −3.2
  mean change (SD) from Baseline to Endpoint in BPRS total score: −8.1 (12.3)
[2]; bifeprunox 40 mg
  BPRS total score, treatment effect (bifeprunox—placebo): −1.9
  mean change (SD) from Baseline to Endpoint in BPRS total score: −6.5 (11.7)
[3]; 20 mg
  CGI Responder No, %: 62%
  CGI Responder Yes, %: 38%
[3]; 30 mg
  CGI Responder No, %: 66%
  CGI Responder Yes, %: 34%
[3]; bifeprunox 20 mg
  CGI-I responder rate (subjects much or very much improved) at Endpoint: 38%
[3]; bifeprunox 30 mg
  CGI-I responder rate (subjects much or very much improved) at Endpoint: 34%
